Measurements from US20240287138A1, “CYCLIC PEPTIDES FOR INHIBITING TNF RECEPTOR 1 ACTIVITY” (Merck Sharp & Dohme LLC, priority 2023, published 2024).
Numbered stars: 1 amine (or outer) side, 2 acyl side, 3 side chain; on linkers, the order of the positions; unused ones are H or OH. Bridge positions count the residues as written; N and C are the ends. Square brackets hold non-standard residues; d marks the D form. Peptide text beside a SMILES is read from it. * marks the point of attachment. Trp(βS-Me,7-OMe) = COc1cccc2c([C@H](C)[C@H](N)C(=O)O)c[nH]c12; Trp(7-Br) = N[C@@H](Cc1c[nH]c2c(Br)cccc12)C(=O)O; Trp(7-Cl) = N[C@@H](Cc1c[nH]c2c(Cl)cccc12)C(=O)O; Phe(4-CONH2) = NC(=O)c1ccc(C[C@H](N)C(=O)O)cc1; Phe(4-COOH) = N[C@@H](Cc1ccc(C(=O)O)cc1)C(=O)O; Pip(5R-OH) = O=C(O)[C@@H]1CC[C@@H](O)CN1; X1 = O=C([C@@H]1CC[C@H](N[*:1])C1)[*:2]; Pip(4-aza) = O=C(O)[C@@H]1CNCCN1; 4Pal = N[C@@H](Cc1ccncc1)C(=O)O; NMeE = CN[C@@H](CCC(=O)O)C(=O)O; αMeS = C[C@](N)(CO)C(=O)O; Carboxymethyl = O=C(O)C*; Nle = CCCC[C@H](N)C(=O)O; Nme = COCCNCC(=O)O; Sar = CNCC(=O)O

Key:
[1] = molecular target: T1, human TNFR1 extracellular domain (ECD) protein (Homo sapiens, UniProt P19438); test: SPR binding affinity to captured human TNFR1 ECD
T1 construct: HRV 3C protease cleavage site (C); 6His (C, cleaved yes); made in house; host or cells: Sf21 insect cells (baculovirus), secreted
T1 sequence (P19438 30-211): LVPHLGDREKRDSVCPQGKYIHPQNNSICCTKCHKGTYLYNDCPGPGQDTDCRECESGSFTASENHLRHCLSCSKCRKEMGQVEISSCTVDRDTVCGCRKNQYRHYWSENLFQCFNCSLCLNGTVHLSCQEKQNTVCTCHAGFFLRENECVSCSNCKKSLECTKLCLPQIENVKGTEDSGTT
Protocol: (§1) B. Procedure for Binding Affinity and Selectivity measured by SPR
(§2) Affinity and selectivity for hTNFR1 and TNFR2 was determined using SPR. Human TNFR1 or TNFR2 genes (extracellular domain only) were synthesized with a C-terminal Avi-tag, HRV 3C protease cleavage site followed by a 6His-tag for affinity purification. The final gene product was cloned into pBAC™-1 vector (Millipore Sigma) for expression testing in insect cells. Constructs were transfected into Sf21 cells for baculovirus generation followed by protein expression analysis in Sf21 and Tni cell lines. Large scale expression in Sf21 cells was performed using baculovirus infected insect cells (BIICs) infected at a MOI=2.0 grown for 72 h. Target proteins secreted into the media were harvested via centrifugation and concentrated using diafiltration. TNFR was purified by immobilized metal ion affinity chromatography (IMAC) using a Ni-Sepharose HisTrap™ column (Cytiva™). Isolated TNFR had His tag removed using HRV 3C protease followed by additional purification using Ni-NTA chromatography. Biotinylation was performed on Ni-NTA flow-through fractions concentrated to 45 μM and treated with BirA ligase (1:100, μg/μg ratio) in 50 mM Tris pH 7.5, 150 mM NaCl, 50 μM biotin, 10 mM magnesium acetate, 10 mM ATP at 4° C. for 20 h. Final purification of biotin-TNFR and buffer exchange into 20 mM HEPES pH 7.5, 150 mM NaCl was performed using a HiLoad® Superdex® 200 26/60 column (Cytiva™). Highly purified protein was aliquoted and stored at −80° C.
(§3) The SPR assay uses a Cytiva™ 8K or 8K+ biosensor instrument to measure the kinetics of peptide analytes binding to captured human TNFR1 extracellular domain (ECD) protein; peptide analytes are also evaluated for any off-target binding to human TNFR2 ECD protein in parallel. Recombinant human TNFR1 ECD and human TNFR2 ECD proteins, biotinylated via engineered C-terminal avi-tags, are immobilized to a regenerable streptavidin biosensor chip surface (Cytiva™ Biotin CAPture kit, Series S; cat. #28920234). Peptide analytes binding to immobilized human TNFR1 ECD protein and their subsequent dissociation are conducted in a buffer of 10 mM HEPES pH 7.4, 150 mM NaCl, 3 mM EDTA, 0.05% P20,2% DMSO under laminar flow conditions and measured in response units (RU), which are directly proportional to the accumulated mass on the surface of the biosensor chip; the biosensor chip surface is regenerated via Cytiva™ proprietary methods between the evaluation of each peptide analyte. […] The SPR assay determines the association and dissociation rate constants, kon and koff, for each peptide analyte and, from these values, calculates the binding affinity, […] reported in Table 2.

human TNFR2 ECD protein = molecular target: T2, human TNFR2 ECD protein (Homo sapiens, UniProt P20333); test: SPR off-target binding (selectivity) to human TNFR2 ECD
T2 construct: HRV 3C protease cleavage site (C); 6His (C, cleaved yes); made in house; host or cells: Sf21 insect cells (baculovirus), secreted
T2 sequence (P20333 23-257): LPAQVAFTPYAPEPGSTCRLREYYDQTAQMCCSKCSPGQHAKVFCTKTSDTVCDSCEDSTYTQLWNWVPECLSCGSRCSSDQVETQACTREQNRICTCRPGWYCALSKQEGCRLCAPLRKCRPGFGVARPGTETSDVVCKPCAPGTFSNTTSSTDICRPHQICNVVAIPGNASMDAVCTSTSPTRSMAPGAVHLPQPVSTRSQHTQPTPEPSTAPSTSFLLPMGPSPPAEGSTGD
Protocol: as §1, §2, §3

[2] = molecular target: T3, TNFα-induced NF-κB signal transduction pathway (TNFR1 signaling) in THP-1 cells (Homo sapiens, UniProt P19438); test: THP-1 Lucia NF-κB reporter cell assay, inhibition of TNFα-induced NF-κB signaling; format: cell-based; details: THP-1 NF-κB Lucia reporter cells, 10 ng/mL TNFα, 16-18 h, secreted luciferase; read-out: THP-1 IC50
T3 sequence (P19438 30-455): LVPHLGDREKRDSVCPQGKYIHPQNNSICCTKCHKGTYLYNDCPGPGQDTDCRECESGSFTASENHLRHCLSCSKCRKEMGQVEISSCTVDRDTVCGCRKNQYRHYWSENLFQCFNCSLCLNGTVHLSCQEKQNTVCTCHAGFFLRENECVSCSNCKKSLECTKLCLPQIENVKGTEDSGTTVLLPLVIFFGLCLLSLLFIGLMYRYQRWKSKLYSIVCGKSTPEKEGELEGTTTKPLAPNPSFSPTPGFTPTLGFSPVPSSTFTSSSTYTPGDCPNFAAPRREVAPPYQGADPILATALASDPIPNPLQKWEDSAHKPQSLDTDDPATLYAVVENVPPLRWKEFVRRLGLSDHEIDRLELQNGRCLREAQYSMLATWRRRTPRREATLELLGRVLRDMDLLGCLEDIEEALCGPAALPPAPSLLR
Summary of the method: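 Inhibition of TNFR1-driven NF-κB activation was measured as luminescence of secreted reporter luciferase following overnight (16-18 h) stimulation with 10 ng/mL TNFα.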

Row | SMILES | Kd [1] | Kd (human TNFR2 ECD protein) | IC50 [2]
1 | CCCC[C@@H]1NC(=O)CSC[C@@H](C(N)=O)NC(=O)[C@H]([C@@H](C)c2c[nH]c3c(OC)cccc23)NC(=O)CN(C)C(=O)[C@H](Cc2ccc(O)cc2)NC(=O)[C@H](Cc2ccc(C(N)=O)cc2)NC(=O)[C@](C)(CO)NC(=O)[C@H](Cc2c[nH]c3c(Br)cccc23)NC(=O)[C@H](Cc2ccncc2)NC(=O)[C@H](CC(N)=O)NC(=O)[C@H](CCC(=O)O)N(C)C(=O)[C@H](Cc2c[nH]c3ccccc23)NC(=O)[C@@H]2CC[C@@H](O)CN2C(=O)[C@H](Cc2ccncc2)NC1=O [SEQ ID NO. 39] ({CH2CO}-[Nle][4Pal][Pip(5R-OH)]W[NMeE]N[4Pal][Trp(7-Br)][αMeS][Phe(4-CONH2)]Y[Sar][Trp(βS-Me,7-OMe)]C-NH2; thioether N-14) | 0.05 nM | > 1000 nM | 0.9 nM
2 | CCCC[C@@H]1NC(=O)[C@@H]2CC[C@@H](C2)NC(=O)[C@H]([C@@H](C)c2c[nH]c3c(OC)cccc23)NC(=O)CN(C)C(=O)[C@H](Cc2ccc(O)cc2)NC(=O)[C@H](Cc2ccc(C(N)=O)cc2)NC(=O)[C@](C)(CO)NC(=O)[C@H](Cc2c[nH]c3c(Cl)cccc23)NC(=O)[C@H](Cc2ccc(OCC(=O)O)cc2)NC(=O)[C@H](CC(N)=O)NC(=O)[C@H](CCC(=O)O)N(C)C(=O)[C@H](Cc2c[nH]c3ccccc23)NC(=O)[C@@H]2CC[C@@H](O)CN2C(=O)[C@H](Cc2ccncc2)NC1=O [SEQ ID NO. 44] (cyclo([4Pal][Pip(5R-OH)]W[NMeE]NY(Carboxymethyl)[Trp(7-Cl)][αMeS][Phe(4-CONH2)]Y[Sar][Trp(βS-Me,7-OMe)][X1][Nle])) | 0.16 nM | > 1000 nM | 0.5 nM
3 | CCCC[C@@H]1NC(=O)[C@@H]2CC[C@@H](C2)NC(=O)[C@H]([C@@H](C)c2c[nH]c3c(OC)cccc23)NC(=O)CN(C)C(=O)[C@H](Cc2ccc(O)cc2)NC(=O)[C@H](Cc2ccc(C(=O)O)cc2)NC(=O)[C@](C)(CO)NC(=O)[C@H](Cc2c[nH]c3c(Cl)cccc23)NC(=O)[C@H](Cc2ccncc2)NC(=O)[C@H](CC(N)=O)NC(=O)CN(CCOC)C(=O)[C@H](Cc2c[nH]c3ccccc23)NC(=O)[C@@H]2CNCCN2C(=O)[C@H](Cc2ccncc2)NC1=O [SEQ ID NO. 82] (cyclo([4Pal][Trp(7-Cl)][αMeS][Phe(4-COOH)]Y[Sar][Trp(βS-Me,7-OMe)][X1][Nle][4Pal][Pip(4-aza)]W[Nme]N)) | 0.07 nM | > 1000 nM | 
4 | CCCC[C@@H]1NC(=O)CSC[C@@H](C(N)=O)NC(=O)[C@H]([C@@H](C)c2c[nH]c3c(OC)cccc23)NC(=O)CN(C)C(=O)[C@H](Cc2ccc(C(N)=O)cc2)NC(=O)[C@H](Cc2ccc(C(=O)O)cc2)NC(=O)[C@](C)(CO)NC(=O)[C@H](Cc2c[nH]c3c(Cl)cccc23)NC(=O)[C@H](Cc2ccncc2)NC(=O)[C@H](CC(N)=O)NC(=O)[C@H](CCC(=O)O)N(C)C(=O)[C@H](Cc2c[nH]c3ccccc23)NC(=O)[C@@H]2CNCCN2C(=O)[C@H](Cc2ccncc2)NC1=O [SEQ ID NO. 124] ({CH2CO}-[Nle][4Pal][Pip(4-aza)]W[NMeE]N[4Pal][Trp(7-Cl)][αMeS][Phe(4-COOH)][Phe(4-CONH2)][Sar][Trp(βS-Me,7-OMe)]C-NH2; thioether N-14) | 0.12 nM | > 1000 nM | 
